Results published in PubChem BioAssay (NCI).
“And” between values parts separate entries of the source, which are not always exact repeats. Identical values can stand only once.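 Following 48 hours of exposure in 96-well plates, responses at five concentrations were used to interpolate endpoints linearly. At the GI50, growth is halved. TGI denotes the concentration required for complete inhibition of growth.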

Experiments:
Test in all cases: growth of human tumour cells (NCI), 48 h
[1] = system: OVCAR-4 ovarian
[2] = system: M14 melanoma
[3] = system: HOP-62 NSCLC
[4] = system: K-562 leukemia
[5] = system: HS 578T breast
[6] = system: SK-MEL-28 melanoma
[7] = system: NCI-H23 lung
[8] = system: UACC-257 melanoma
[9] = system: HT29 colon
[10] = system: IGROV1 ovarian

COc1ccc(C2=NNC(c3sc(Cl)nc3Cl)C2)cc1 (configuration not stated)
GI50 [1]: 11.5 µM
TGI [1]: 25.4 µM
GI50 [2]: 3.47 µM
TGI [2]: 16.8 µM
GI50 [3]: 28.4 µM
TGI [3]: > 100 µM
GI50 [4]: 3.63 µM
TGI [4]: 36.8 µM
GI50 [5]: 16.8 µM
TGI [5]: 67.4 µM
GI50 [6]: 10.9 µM
TGI [6]: 24.8 µM
GI50 [7]: 10.6 µM
TGI [7]: 26.7 µM
GI50 [8]: 16 µM
TGI [8]: 36.2 µM
GI50 [9]: 5.12 µM
TGI [9]: 18.6 µM
GI50 [10]: 5.21 µM
TGI [10]: 22.2 µM

BrCc1ccc2ccc3ccc(CBr)nc3c2n1
TGI [1]: 12.3 µM
TGI [2]: 8.79 µM
TGI [3]: 21 µM
TGI [4]: > 28.4 µM
TGI [5]: 71.3 µM
TGI [6]: 6.02 µM
TGI [7]: 19.4 µM
TGI [8]: 14.1 µM
TGI [9]: 4.61 µM
TGI [10]: 10.8 µM

NC(=S)c1cccc(C2Nc3ccccc3O2)c1 (configuration not stated)
TGI [1]: > 100 µM
TGI [2]: > 100 µM
TGI [3]: > 100 µM
TGI [4]: > 100 µM
TGI [5]: > 100 µM
TGI [6]: > 100 µM
TGI [7]: > 100 µM
TGI [8]: > 100 µM
TGI [9]: > 100 µM
TGI [10]: > 100 µM

COc1ccc(N=c2nc3sc4cc(Cl)ccc4n3c(N)c2C#N)cc1
GI50 [1]: 3.51 µM
TGI [1]: > 100 µM
GI50 [2]: 4.45 µM
TGI [2]: > 100 µM
GI50 [3]: 4.84 µM
TGI [3]: > 100 µM
GI50 [4]: 22.5 µM
TGI [4]: > 100 µM
GI50 [5]: 1.27 µM
GI50 [6]: 2.92 µM
TGI [6]: 22.9 µM
GI50 [7]: 2.49 µM
TGI [7]: 20.5 µM
GI50 [8]: 35.4 µM
TGI [8]: > 100 µM
GI50 [9]: 1.31 µM
TGI [9]: > 100 µM
GI50 [10]: 3.48 µM
TGI [10]: > 66.1 µM

Cn1cc(-c2csc(-c3ccc(Cl)cc3)n2)c2cccnc21
GI50 [1]: 21.9 µM
TGI [1]: 60.8 µM
GI50 [2]: 12 µM
TGI [2]: 24.8 µM
GI50 [3]: 17.2 µM
TGI [3]: 32.4 µM
GI50 [4]: 12.9 µM
TGI [4]: 38.3 µM
GI50 [5]: 12 µM
TGI [5]: 34.4 µM
GI50 [6]: 15.2 µM
TGI [6]: 29.4 µM
GI50 [7]: 13.7 µM
TGI [7]: 31 µM
GI50 [8]: 19.9 µM
TGI [8]: 43.5 µM
GI50 [9]: 13.2 µM
TGI [9]: 25.9 µM
GI50 [10]: 22.3 µM
TGI [10]: > 100 µM

CC(=O)/C(=N\N=C(N)N)c1ccccc1
TGI [1]: > 100 µM
TGI [2]: > 100 µM
TGI [3]: > 100 µM
TGI [4]: > 100 µM
TGI [5]: > 100 µM
TGI [6]: > 100 µM
TGI [7]: > 100 µM
TGI [8]: > 100 µM
TGI [9]: > 100 µM
TGI [10]: > 100 µM

CCOC(=O)c1sc(NC(=O)COc2ccc(/C=C3\CCc4cc(OC)ccc4C3=O)cc2)nc1C
GI50 [1]: 11.8 µM
TGI [1]: 27.7 µM
GI50 [2]: 13.3 µM
TGI [2]: 26.2 µM
GI50 [3]: 15.2 µM
TGI [3]: 30.6 µM
GI50 [4]: 3.71 µM
TGI [4]: > 40.3 µM
GI50 [5]: 13.4 µM
TGI [5]: 42.4 µM
GI50 [6]: 14.6 µM
TGI [6]: 27.7 µM
GI50 [7]: 13.7 µM
TGI [7]: 32.4 µM
GI50 [8]: 11.5 µM
TGI [8]: 25 µM
GI50 [9]: 13.7 µM
TGI [9]: 28.6 µM
GI50 [10]: 1.63 µM
TGI [10]: 6.22 µM

O=C(OCC1=CC(=O)c2ccccc2C1=O)c1ccccc1
GI50 [1]: 13.2 µM
TGI [1]: 28.4 µM
GI50 [2]: 1.72 µM
TGI [2]: 3.59 µM
GI50 [3]: 14.4 µM
TGI [3]: 29.6 µM
GI50 [4]: 9.47 µM
TGI [4]: 34.5 µM
GI50 [5]: 14.3 µM
TGI [5]: 51.7 µM
GI50 [6]: 13 µM
TGI [6]: 28 µM
GI50 [7]: 6.28 µM
TGI [7]: 24.8 µM
GI50 [8]: 3.13 µM
TGI [8]: 9.47 µM
GI50 [9]: 8.13 µM
TGI [9]: 37.7 µM
GI50 [10]: 12.5 µM
TGI [10]: 25.6 µM

CCOC(=O)C(Cc1cc(OC)c(CC(C(=O)OCC)C(=O)OCC)cc1OC)C(=O)OCC
TGI [1]: > 100 µM
TGI [2]: > 100 µM
TGI [3]: > 100 µM
TGI [4]: > 100 µM
TGI [5]: > 100 µM
TGI [6]: > 100 µM
TGI [7]: > 100 µM
TGI [8]: > 100 µM
TGI [9]: > 100 µM
TGI [10]: > 100 µM

CN(Cc1cnc2nc(N)nc(N)c2n1)c1c(Cl)cc(C(=O)NC(CCC(=O)O)C(=O)O)cc1Cl (configuration not stated)
TGI [1]: > 100 µM
GI50 [2]: < 0.01 µM
TGI [2]: > 100 µM
GI50 [3]: 0.0287 µM
TGI [3]: > 100 µM
GI50 [4]: < 0.01 µM
TGI [4]: > 100 µM
GI50 [5]: 8.12 µM
TGI [5]: > 100 µM
GI50 [6]: 0.313 µM
TGI [6]: > 100 µM
GI50 [7]: 0.0277 µM
TGI [7]: > 100 µM
TGI [8]: > 100 µM
GI50 [9]: < 0.01 µM
TGI [9]: > 100 µM
GI50 [10]: < 0.01 µM
TGI [10]: > 100 µM

CC(=O)c1nc(-c2ccc(C[C@@H](CNC(=O)CN(C)C)NC(=O)c3ccc(OC(C)C)c(Cl)c3)cc2)cn1C
GI50 [1]: 0.842 µM
TGI [1]: 22.9 µM
GI50 [2]: 0.0317 µM
TGI [2]: 2.54 µM
GI50 [3]: 0.0614 µM
TGI [3]: 16.9 µM
GI50 [4]: < 0.0196 µM
TGI [4]: 12.9 µM
GI50 [5]: 0.0615 µM
TGI [5]: 21.3 µM
GI50 [6]: 8.01 µM
TGI [6]: 22.6 µM
GI50 [7]: 0.0647 µM
TGI [7]: 21.1 µM
GI50 [8]: 9.58 µM
TGI [8]: 24.3 µM
GI50 [9]: 0.024 µM
TGI [9]: 12.5 µM
GI50 [10]: 0.896 µM
TGI [10]: 21.9 µM

CCS(=O)(=O)c1cccc(-c2cc(C(=O)NC3CCN(C)CC3)c(C)c3[nH]c4ncc(C)cc4c23)c1
GI50 [1]: 1.04 µM and 0.249 µM
TGI [1]: > 7.71 µM and 4.39 µM
GI50 [2]: 1.15 µM and 0.967 µM
TGI [2]: > 8.78 µM and 6.73 µM
GI50 [3]: 0.645 µM and 0.266 µM
TGI [3]: > 6.56 µM and 2.01 µM
GI50 [4]: 0.21 µM and 0.09 µM
TGI [4]: > 10 µM and 11 µM
GI50 [5]: 0.275 µM and 0.109 µM
TGI [5]: 2.6 µM and 0.424 µM
GI50 [6]: 0.834 µM and 0.566 µM
TGI [6]: 6.53 µM and 5.09 µM
GI50 [7]: 0.483 µM and 0.322 µM
TGI [7]: 5.23 µM and 3.75 µM
GI50 [8]: 1.26 µM and 0.562 µM
TGI [8]: 6.79 µM and 4.67 µM
GI50 [9]: 0.372 µM and 0.236 µM
TGI [9]: > 8.44 µM and 10.3 µM
GI50 [10]: 0.179 µM and 0.111 µM
TGI [10]: 1.76 µM and 2.55 µM
